Measured values reported in US4010282A, “Anti-arrhythmic agents” (Knoll A.G. Chemische Fabriken, priority 1974, dated 1977).
Where two headings read alike, the source gives them in different places.

Key:
[1] = test system: left auricle of the guinea pig; test: functional refractory period of the left auricle of the guinea pig using paired electrical stimulation (anti-arrhythmic effect); conditions: for activation at 100 µM: 10^-^4 Mol/l; for Anti-arrhythmic Effect (Prolongation of the Refractory Period) ED25: dose which lengthens the refractory period by 25 percent, up to 30 minutes after addition to bath liquid; for activation at 10 µM: 10^-^5 Mol/l
From the text: (§1) Jovier, J. Pharmakol. Exp. Therap. 148, 100-105 (1965). In this experimental arrangement, the numerous anti-arrhythmic agents, of different chemical structure and different therapeutic points of attack in man, heretofore used in therapy are all characterized by a lengthening of the functional refractory period. The method additionally permits determining the effects of the substance on the contractile force of the heart muscle [Reuter and Heeg, Naunyn-Schmiedeberg's Arch. Pharmak. 268, 323-333 (1971) and Zetler and Strubelt, Naunyn-Schmiedeberg's Arch. Pharmak. 271, 335-345 (1971)]. It is, thus, highly suitable for detecting substances having a large therapeutic breadth, i.e., with a large margin of safety between anti-arrhythmically- and negative inotropically-effective doses.
The testing of the substances employed up to 30 individual experiments in each case. For the determination of the effective dose, linear regression functions were calculated [cf. A. Lindner, Statistische Methoden, 3rd Edition, Birkhaeuser Verlag, Basel (1969)], in which the maximum percentage deviations from the starting value in a time period up to 30 minutes after addition of the test substance to the bath liquid was employed.
(§2) In column I of following Table 1, one of the new compounds and known anti-arrhythmic agents are entered. Column II gives the anti-arrhythmic effect. Column III reports the inotropic effect. The therapeutic breadth of the compounds is given in column IV. The ED25 is the effective dose which lengthens the refractory period by 25 percent or lowers the contractile force by 25 percent.

[2] = test system: left auricle of the guinea pig; test: inotropic effect: decrease in contractile force of the heart muscle; conditions: for Therapeutic Breadth (III/II): ratio ED25 inotropic / ED25 anti-arrhythmic
From the text: as §1, with “148, 100-105 (1965).” left out, “268, 323-333 (1971) and Zetler and Strubelt, Naunyn-Schmiedeberg's Arch.” left out, “271, 335-345 (1971)].” left out
The testing of the substances employed up to 30 individual experiments in each case. For the determination of the effective dose, linear regression functions were calculated [cf.
as §2

rats = test: aconitine-induced disturbance of the heart rhythm in rats (electrocardiogram); assay type: in vivo; conditions: for ED25 / ED50: Rattus norvegicus
From the text: The anti-arrhythmic effect of the diamines could also be confirmed in intact research animals with an experimentally-induced disturbance of the heart rhythm. If rats are continuously infused intravenously with aconitine, severe disturbances in the heartbeat sequence, such as extrasystoles, ventricular tachycardia, and ventricular flutter, which eventually lead to the death of the experimental animal, can be detected in an electrocardiogram. By a pre-treatment with the new pharmaceutical agents, the appearance of these threatening disturbances of the heart rhythm can be hindered or, on continuous administration of aconitine, can be considerably delayed. This experimental model of arrhythmia has already been checked for its evidentiary value using clinically tested standard therapeutic agents and is highly suitable for an experimental animal characterization of anti-arrhythmic agents [cf. Bianchi et al., Arzneim. Forsch. 18, 845-850 (1968); Haas and Busch, Arzneim. Forsch. 18, 401-407 (1968); Haas et al., Arzneim. Forsch. 21, 1392-1399 (1971); Marmo, Naunyn-Schmiedeberg's Arch. Pharmak. 269, 231-247 (1971); and Strubelt et al., Naunyn-Schmiedeberg's Arch. Pharmak. 271, 346-360 (1971)].
The ED25 and ED50 are the intravenous or oral doses in mg/kg that permit a 25 percent or 50 percent increase in the dosage of aconitine administered, versus the aconitine control, until the occurrence of extrasystoles, ventricular tachycardia, and ventricular flutter.

[3] = Cavia porcellus, read-out: Anti-arrhythmic Effect (% Prolongation of the Refractory Period)
[4] = iv, read-out: Ventr. Tachycardia ED25
[5] = iv, read-out: Ventr. Tachycardia ED50
[6] = dose which lowers the contractile force by 25 percent, up to 30 minutes after addition to bath liquid

For c1ccc(CNCCCNCc2ccccc2)cc1, the activation at 100 µM [1, 3] was 47%, the “Anti-arrhythmic Effect (Prolongation of the Refractory Period) ED25” value (“Anti-arrhythmic Effect” below) [1] was 0.054 and the “Inotropic Effect (Decrease in Contractile Force) ED25” value ([2]; guinea pig) was 0.141. For the same molecule, the “Therapeutic Breadth (III/II)” value [2] was 2.6, the ED25 (rats; iv, read-out: Extrasystoles ED25) was 5.2 mg/kg and the ED50 (rats; iv, read-out: Extrasystoles ED50) was 6 mg/kg. It also gave an ED25 (rats; iv, read-out: Ventr. Flutter ED25) of 4.9 mg/kg, an ED50 (rats; iv, read-out: Ventr. Flutter ED50) of 6.4 mg/kg and an ED25 (rats; [4]) of 5.3 mg/kg. For the same molecule, the ED50 (rats; [5]) was 6.2 mg/kg, the ED25 (rats; po, read-out: Extrasystoles ED25) was 65.8 mg/kg and the ED50 (rats; po, read-out: Extrasystoles ED50) was 96.2 mg/kg. It also gave an ED25 (rats; po, read-out: Ventr. Flutter ED25) of 51.1 mg/kg, an ED50 (rats; po, read-out: Ventr. Flutter ED50) of 69.9 mg/kg and an ED25 (rats; po, read-out: Ventr. Tachycardia ED25) of 55.4 mg/kg. The ED50 (rats; po, read-out: Ventr. Tachycardia ED50) was 71.6 mg/kg and the “effect in aconitine arrhythmia” value (rats; Table 3, parenterally as well as orally) was “superior effect”.

In the case of c1ccc(CN(CC2=NCCN2)c2ccccc2)cc1 [Antazoline, antazoline], the “Anti-arrhythmic Effect” value [1] is reported as 0.164, the “Inotropic Effect (Decrease in Contractile Force) ED25” value [2, 6] is reported as 0.094 and the “Therapeutic Breadth (III/II)” value [2] is reported as 0.6.

Clc1cccc(CNCCCNCc2cccc(Cl)c2)c1 [N,N'-di-(3'-chlorobenzyl)-propylene-1,3-diamine] was tested, and the activation at 20 µM ([1]; Cavia porcellus, 2 × 10^-^5 Mol/l, read-out: Anti-arrhythmic Effect (% Prolongation of the Refractory Period)) was 45%.

Clc1ccc(CNCCCNCc2ccc(Cl)cc2)cc1 [N,N'-di-(4'-chlorobenzyl)-1,3-diaminopropane] gave an activation at 10 µM [1, 3] of 37%.

Clc1ccc(CNCCCNCc2ccc(Cl)c(Cl)c2)cc1Cl [N,N'-di-(m,p-dichlorobenzyl)-propylenediamine] gave an activation at 10 µM [1, 3] of 26%.

Molecule COc1ccc(CNCCCNCc2ccc(OC)c(OC)c2)cc1OC [N,N'-di-(m,p-dimethoxybenzyl)propylenediamine] has an activation at 100 µM [1, 3] of 42%.

c1ccc(CNCCNCc2ccccc2)cc1 [N,N'-dibenzyl-ethylenediamine] showed an activation at 100 µM [1, 3] of 39%.

For CCC[N+]12C(O)C(CC)C3CC1C1N(C)c4ccccc4C14CC2C3C4O (stereo not drawn) [N,n-propylajmaline, N-propylajmaline], the “Anti-arrhythmic Effect” value [1] was 0.0037, the “Inotropic Effect (Decrease in Contractile Force) ED25” value [2, 6] was 0.0015 and the “Therapeutic Breadth (III/II)” value [2] was 0.4.

C1CCN2C[C@@H]3C[C@@H](CN4CCCC[C@@H]34)[C@H]2C1 [SPARTEINE, reference compound] showed an ED25 (rats; [4]) of 4.4 mg/kg and an ED50 (rats; [5]) of 9.6 mg/kg.
